Laboratory results reported in patent US20240140935A1, “NON-COVALENT DIMER CATION, SALT THEREOF, PREPARATION METHOD THEREOF, AND USE THEREOF AS ANTIOXIDANT” (SUZHOU PROTONATION CHAIN BIOTECHNOLOGY CO., LTD., priority 2022, published 2024).

Assays:
[1] = test system: L02 human normal hepatocytes; assay: Carbon tetrachloride hepatotoxicity cell model, levels of ROS, MDA, GSH, SOD and ATP in cell lysate; format: cell-based
Experimental: (§1) The salts of Example 1, Example 16, and Example 13 were taken as the compound of experimental groups, vitamin E was taken as the compound of control group. A blank group (without carbon tetrachloride) and a model group (with carbon tetrachloride but with neither the salt of the present application nor vitamin E) were also set.
L02 human normal hepatocytes were uniformly inoculated into a 96-well plate, about 5,000 cells per well. The cells were cultured in a complete DMEM for 6 h. After the cells were completely adhered to the wall, all the media were removed, 100 μL of serum-free DMEM containing 0.02 mg/mL carbon tetrachloride (for the blank group, a serum-free medium without carbon tetrachloride) was added to each well, and the cells were cultured for 12 h. Then, all the media were removed, 100 μL of serum-free DMEM containing […] compound of experimental groups or control group was added to each well (for the blank group and the model group, serum-free DMEM without the compound) according to the groups, and the cells were cultured for 24 h.
(§2) 50 μL of RIPA lysis buffer (strong) was added to each well to lyse the cells, and levels of reactive oxygen species, malondialdehyde, glutathione, superoxide dismutase, and adenosine triphosphate in the cells of each group were detected by using corresponding chemical reagents.

[2] = test system: L02 human normal hepatocytes; assay: Palmitate-induced non-alcoholic fatty liver disease cell model, levels of ROS, MDA, GSH, SOD and ATP in cell lysate; format: cell-based
Experimental: as §1, with “palmitate)” for “carbon tetrachloride)”, “palmitate” for “carbon tetrachloride”
L02 human normal hepatocytes were uniformly inoculated into a 96-well plate, about 5,000 cells per well. The cells were cultured in a complete DMEM for 6 h. After the cells were completely adhered to the wall, all the media were removed, 100 μL of serum-free medium containing 0.05 mg/mL palmitate was added to each well (for the blank group, a serum-free medium without palmitate), and the cells were cultured for 24 h.
Then, all the media were removed, 100 μL of serum-free DMEM containing […] compound of experimental groups or control group was added to each well (for the blank group and the model group, serum-free DMEM without the compound) according to the groups, and the cells were cultured for 24 h.
as §2

## vitamin E
[1]; FIG. 6 (a)
  level of ROS in the cells: only slightly reduce
[1]; FIG. 6 (b)
  level of MDA in the cells: only slightly reduce
[1]; FIG. 6 (c)
  level of GSH in the cells: only slightly increase
[1]; FIG. 6 (d)
  level of SOD in the cells: only slightly increase
[1]; FIG. 6 (e)
  level of ATP in the cells: only partially increase
[2]; FIG. 4 (a)
  level of ROS in the cells: only slightly reduce
[2]; FIG. 4 (b)
  level of MDA in the cells: only slightly reduce
[2]; FIG. 4 (c)
  level of GSH in the cells: only slightly increase
[2]; FIG. 4 (d)
  level of SOD in the cells: only slightly increase
[2]; FIG. 4 (e)
  level of ATP in the cells: only partially increase
